The record followed here is ChEMBL document CHEMBL1201862, “PubChem BioAssay data set” (2004).

Structures are written as SMILES. Active and inactive are the calls of the source.

Series [1] has as its target T1, Zinc finger protein mex-5 (Caenorhabditis elegans, UniProt Q9XUB2).
T1 sequence (Q9XUB2 whole entry): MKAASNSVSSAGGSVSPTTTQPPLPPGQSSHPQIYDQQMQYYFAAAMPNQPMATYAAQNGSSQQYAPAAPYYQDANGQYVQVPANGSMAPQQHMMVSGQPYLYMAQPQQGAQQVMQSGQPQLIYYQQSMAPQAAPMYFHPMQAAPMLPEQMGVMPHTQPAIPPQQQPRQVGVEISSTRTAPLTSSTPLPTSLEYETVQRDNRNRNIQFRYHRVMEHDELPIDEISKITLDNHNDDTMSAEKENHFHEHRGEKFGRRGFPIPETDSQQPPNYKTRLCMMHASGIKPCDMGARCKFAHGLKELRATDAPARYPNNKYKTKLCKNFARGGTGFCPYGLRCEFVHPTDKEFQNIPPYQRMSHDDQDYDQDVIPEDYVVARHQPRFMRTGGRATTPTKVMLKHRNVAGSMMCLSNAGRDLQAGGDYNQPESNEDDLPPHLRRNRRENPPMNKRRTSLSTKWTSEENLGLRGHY
Put plainly: MEX-5/TCR-2 RNA interaction inhibitors, dose response, biochemical, C. elegans, fluorescence polarization (AID 1960). A general note: In fluorescence polarisation assays a small probe gives low polarisation when free and higher when bound to something large.

The target of series [2] is Glucose-6-phosphate 1-dehydrogenase (Homo sapiens, UniProt P11413). Description: human G6PD enzyme inhibitors, dose response, selectivity assay for P. falciparum G6PD inhibitor project, biochemical, fluorescence (AID 504792). The series is classed as functional.
In series [3] the target is T2, Rac GTPase-activating protein 1 (Homo sapiens, UniProt Q9H0H5).
T2 sequence (Q9H0H5 whole entry): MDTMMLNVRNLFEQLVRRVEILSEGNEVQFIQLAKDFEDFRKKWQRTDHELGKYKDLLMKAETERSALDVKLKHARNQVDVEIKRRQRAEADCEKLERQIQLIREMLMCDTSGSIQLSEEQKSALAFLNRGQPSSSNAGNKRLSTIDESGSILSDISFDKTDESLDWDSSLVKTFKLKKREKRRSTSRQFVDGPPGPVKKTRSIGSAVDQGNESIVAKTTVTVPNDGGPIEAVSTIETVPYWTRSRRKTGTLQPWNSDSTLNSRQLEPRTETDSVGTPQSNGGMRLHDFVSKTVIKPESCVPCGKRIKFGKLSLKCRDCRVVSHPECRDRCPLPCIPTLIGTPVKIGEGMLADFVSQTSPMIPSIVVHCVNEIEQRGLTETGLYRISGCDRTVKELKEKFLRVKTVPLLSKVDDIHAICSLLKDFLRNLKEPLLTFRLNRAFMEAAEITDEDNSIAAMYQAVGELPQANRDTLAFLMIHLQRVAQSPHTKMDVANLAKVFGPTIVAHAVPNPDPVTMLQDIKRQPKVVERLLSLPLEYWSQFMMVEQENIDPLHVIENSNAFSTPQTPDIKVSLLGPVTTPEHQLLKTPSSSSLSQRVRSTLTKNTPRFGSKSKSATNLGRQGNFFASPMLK
Description: MgcRacGAP GTPase-activating activity inhibitors, confirmation, biochemical, ADP Hunter fluorescence, primary and confirmatory (AID 624330). In kind it is functional.

The target of series [4] is T3, RNA-binding protein pos-1 (Caenorhabditis elegans, UniProt G5EF15).
T3 sequence (G5EF15 whole entry): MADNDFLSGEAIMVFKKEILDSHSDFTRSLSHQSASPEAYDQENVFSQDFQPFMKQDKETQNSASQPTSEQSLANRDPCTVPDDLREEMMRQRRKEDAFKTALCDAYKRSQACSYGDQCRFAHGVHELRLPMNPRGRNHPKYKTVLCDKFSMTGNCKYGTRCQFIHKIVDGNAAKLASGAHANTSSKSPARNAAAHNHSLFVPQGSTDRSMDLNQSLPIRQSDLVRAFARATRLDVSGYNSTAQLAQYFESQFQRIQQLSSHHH
Description: inhibitors of POS-1/mex-3 RNA binding, dose response, biochemical, fluorescence polarization (AID 1964).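 Note: purified POS-1 fused to maltose binding protein made in E. coli; potency of compounds blocking POS-1 binding to fluorescent RNA.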

Series [5] concerns HeLa. Description: HeLa cell cytotoxicity, dose response, cytotoxicity control for MITF activator project, CellTiter-Glo luminescence, cherry-pick samples (AID 540259). The series is classed as functional, cell-based. As to conditions: Homo sapiens.
Series [6] concerns the target Cytochrome P450 2C9 (Homo sapiens, UniProt P11712).
For series [7], the target named is Cytochrome P450 3A4 (Homo sapiens, UniProt P08684).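 Note: CYP3A4 tested as one member of a cytochrome P450 panel screen.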
For series [8], the target named is T4, Type-1 angiotensin II receptor (Homo sapiens, UniProt P30556).
T4 sequence (P30556 whole entry): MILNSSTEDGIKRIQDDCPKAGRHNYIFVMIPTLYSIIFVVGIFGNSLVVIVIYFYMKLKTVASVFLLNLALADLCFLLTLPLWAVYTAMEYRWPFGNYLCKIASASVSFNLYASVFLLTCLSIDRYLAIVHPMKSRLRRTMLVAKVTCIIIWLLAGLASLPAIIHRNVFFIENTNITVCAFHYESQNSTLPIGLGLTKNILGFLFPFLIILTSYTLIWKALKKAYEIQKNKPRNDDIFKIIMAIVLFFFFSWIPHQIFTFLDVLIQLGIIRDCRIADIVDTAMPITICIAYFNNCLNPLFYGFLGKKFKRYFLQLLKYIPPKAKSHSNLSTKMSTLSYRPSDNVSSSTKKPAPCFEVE
Description: AT1 receptor antagonists, dose response, selectivity assay for APJ receptor antagonist project, cell-based, uHTS hits (AID 463214).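 Note: antagonist potency against angiotensin II stimulated AT1 response.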 In kind it is functional.

In series [9] the target is Beta-galactosidase (Escherichia coli, UniProt Q8VNN2). Put plainly: PubChem AID 485352. In kind it is functional.
Series [10] addresses Cytochrome P450 2C19 (Homo sapiens, UniProt P33261). Put plainly: Cytochrome panel assay with activity outcomes. Panel member name: p450-cyp2c19 Compounds with AC50 equal or less than 10 uM are considered active. The series is classed as functional.
Series [11] addresses Cytochrome P450 2D6 (Homo sapiens, UniProt P10635).
For series [12], the system named is HEK293. Description: NOD1 signaling inhibitors, primary screen, cell-based, luminescence, uHTS (AID 1578). The series is classed as functional. As to conditions: Homo sapiens.
The subject of series [13] is HEK293. Put plainly: NOD2 signaling inhibitors in MDP-stimulated cells, cell-based, uHTS, luminescence (AID 2001). As to conditions: Homo sapiens. In kind it is functional.
Series [14] concerns HEK293. Put plainly: cells. As to conditions: Homo sapiens. The series is classed as functional, cell-based.
The test system of series [15] is HEK293. Put plainly: cells. In kind it is functional, cell-based. The conditions noted are these: Homo sapiens. The source holds these as a separate data set.
The nature of series [16]: off-target signal loss in HeLa-CEM21 co-culture – HeLa F-luc CTL cells, cherry-picked, counter-screen for HIV-1 Env fusion inhibitor project, dose response (AID 652040).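 Note: potency for signal decrease marking cytotoxic or nonspecific inhibition.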 The series is classed as functional, cell-based.
Series [17] is described as follows: CEM21 lymphoblast cell cytotoxicity, dose response, cytotoxicity control for viral fusion inhibitor project, CellTiter-Glo luminescence, cherry-picked (AID 652042).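 Note: potency for signal decrease meaning cytotoxicity.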 In kind it is functional, cell-based. (In ATP-based viability assays light output follows the ATP content of the culture.)
Series [18] in a line: inhibitors of clade B AD8 Env fusion, dose response, cell-based, cherry-pick (AID 652062).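 Note: luciferase signal from cell-cell fusion driven by HIV-1 clade B AD8 Env; potency is for inhibitors of fusion seen as a drop in luminescence.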 In kind it is functional.
A short description of series [19]: ZM109 Env clade C HIV-1 fusion inhibitors, dose response, HeLa effector, CEM target cells, luciferase, cherry-pick (AID 652058). The series is classed as functional, cell-based.
The nature of series [20]: inhibitors of HIV Env-driven cell fusion, dose response, cherry-pick (AID 652057). The series is classed as functional, cell-based.
Series [21] deals with T5, Cytochrome P450 1A2 (Homo sapiens, UniProt P05177).
T5 sequence (P05177 whole entry): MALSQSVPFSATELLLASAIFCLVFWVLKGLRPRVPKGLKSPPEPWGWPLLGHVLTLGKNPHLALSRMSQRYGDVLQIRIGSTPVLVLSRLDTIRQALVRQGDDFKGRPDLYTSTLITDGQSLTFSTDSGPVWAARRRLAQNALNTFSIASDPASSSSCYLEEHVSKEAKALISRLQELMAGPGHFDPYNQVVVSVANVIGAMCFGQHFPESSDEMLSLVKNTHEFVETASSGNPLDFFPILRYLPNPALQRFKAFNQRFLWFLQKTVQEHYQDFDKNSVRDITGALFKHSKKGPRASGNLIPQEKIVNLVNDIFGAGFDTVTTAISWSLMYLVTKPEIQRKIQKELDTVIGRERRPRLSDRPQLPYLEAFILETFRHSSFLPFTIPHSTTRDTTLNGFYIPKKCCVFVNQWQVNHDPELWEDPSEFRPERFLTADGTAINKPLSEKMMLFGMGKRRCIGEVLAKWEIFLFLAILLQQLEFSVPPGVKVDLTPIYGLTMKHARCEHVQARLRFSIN

The target of series [22] is T6, Oxysterols receptor LXR-beta (Homo sapiens, UniProt P55055).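 Note: agonist activity at LXR measured by a cell-based luminescence readout across a dose range, run as a counterscreen for daf-12 agonists; HEK293 cells with Gal4-LXR fusion and GAL4-driven luciferase reporter; potency for activation of Gal4-LXR reporter so compounds are agonists.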
T6 sequence (P55055 whole entry): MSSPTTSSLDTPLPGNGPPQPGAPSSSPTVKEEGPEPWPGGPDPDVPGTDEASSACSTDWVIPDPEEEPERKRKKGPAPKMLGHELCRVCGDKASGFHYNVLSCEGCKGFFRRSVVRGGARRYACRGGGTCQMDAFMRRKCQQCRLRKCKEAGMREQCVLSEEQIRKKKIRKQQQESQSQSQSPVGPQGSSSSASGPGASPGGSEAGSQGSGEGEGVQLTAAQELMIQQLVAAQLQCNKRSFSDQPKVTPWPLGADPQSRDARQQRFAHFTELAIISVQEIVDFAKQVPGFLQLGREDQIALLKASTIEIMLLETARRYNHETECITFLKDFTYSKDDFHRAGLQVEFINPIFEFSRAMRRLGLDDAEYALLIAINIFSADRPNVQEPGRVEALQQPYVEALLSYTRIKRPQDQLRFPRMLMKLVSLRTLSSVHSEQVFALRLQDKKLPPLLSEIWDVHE
The series is classed as functional, cell-based.

Chain of Cytochrome P450 2D6 (P10635 whole entry): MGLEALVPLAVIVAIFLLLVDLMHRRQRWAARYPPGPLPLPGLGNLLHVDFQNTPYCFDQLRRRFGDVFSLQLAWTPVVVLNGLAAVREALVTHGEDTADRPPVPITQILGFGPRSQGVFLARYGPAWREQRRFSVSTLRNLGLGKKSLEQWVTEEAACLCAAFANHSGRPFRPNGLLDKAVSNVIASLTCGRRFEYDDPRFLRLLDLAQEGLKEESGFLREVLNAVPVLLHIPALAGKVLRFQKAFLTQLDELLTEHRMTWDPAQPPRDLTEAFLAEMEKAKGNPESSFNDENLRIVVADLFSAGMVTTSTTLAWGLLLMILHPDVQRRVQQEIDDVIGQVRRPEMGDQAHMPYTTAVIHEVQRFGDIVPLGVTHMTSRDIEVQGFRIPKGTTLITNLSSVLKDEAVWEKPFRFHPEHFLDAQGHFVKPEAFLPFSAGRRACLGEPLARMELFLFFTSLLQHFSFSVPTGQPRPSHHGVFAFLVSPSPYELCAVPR
Chain of Glucose-6-phosphate 1-dehydrogenase (P11413 whole entry): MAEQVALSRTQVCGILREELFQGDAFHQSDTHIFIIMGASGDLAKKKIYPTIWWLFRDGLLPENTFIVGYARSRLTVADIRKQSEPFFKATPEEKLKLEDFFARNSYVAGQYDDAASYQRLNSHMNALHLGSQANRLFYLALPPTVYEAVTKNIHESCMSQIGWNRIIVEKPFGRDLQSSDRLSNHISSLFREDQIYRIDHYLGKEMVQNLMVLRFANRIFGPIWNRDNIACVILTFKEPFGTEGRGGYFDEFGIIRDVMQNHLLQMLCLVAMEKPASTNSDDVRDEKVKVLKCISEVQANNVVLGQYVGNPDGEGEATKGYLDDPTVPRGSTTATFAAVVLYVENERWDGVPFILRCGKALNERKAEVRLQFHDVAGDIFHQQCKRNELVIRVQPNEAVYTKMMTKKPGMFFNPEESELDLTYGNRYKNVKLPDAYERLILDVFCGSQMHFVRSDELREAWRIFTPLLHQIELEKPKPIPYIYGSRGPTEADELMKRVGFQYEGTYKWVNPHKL
Chain of Cytochrome P450 2C9 (P11712 whole entry): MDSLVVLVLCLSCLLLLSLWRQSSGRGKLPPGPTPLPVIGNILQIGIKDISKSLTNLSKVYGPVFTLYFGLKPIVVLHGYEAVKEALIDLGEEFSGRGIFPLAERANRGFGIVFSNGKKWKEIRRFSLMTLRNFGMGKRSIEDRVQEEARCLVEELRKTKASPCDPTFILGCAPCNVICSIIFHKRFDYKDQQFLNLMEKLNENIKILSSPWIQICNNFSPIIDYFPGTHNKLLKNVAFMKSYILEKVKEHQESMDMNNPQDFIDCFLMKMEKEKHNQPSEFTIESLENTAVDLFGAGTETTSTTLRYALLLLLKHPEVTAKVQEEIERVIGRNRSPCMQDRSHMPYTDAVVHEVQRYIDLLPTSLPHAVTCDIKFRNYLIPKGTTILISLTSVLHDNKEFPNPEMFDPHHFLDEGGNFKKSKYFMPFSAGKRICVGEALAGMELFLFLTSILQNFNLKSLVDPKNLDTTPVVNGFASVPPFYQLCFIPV
Chain of Cytochrome P450 3A4 (P08684 whole entry): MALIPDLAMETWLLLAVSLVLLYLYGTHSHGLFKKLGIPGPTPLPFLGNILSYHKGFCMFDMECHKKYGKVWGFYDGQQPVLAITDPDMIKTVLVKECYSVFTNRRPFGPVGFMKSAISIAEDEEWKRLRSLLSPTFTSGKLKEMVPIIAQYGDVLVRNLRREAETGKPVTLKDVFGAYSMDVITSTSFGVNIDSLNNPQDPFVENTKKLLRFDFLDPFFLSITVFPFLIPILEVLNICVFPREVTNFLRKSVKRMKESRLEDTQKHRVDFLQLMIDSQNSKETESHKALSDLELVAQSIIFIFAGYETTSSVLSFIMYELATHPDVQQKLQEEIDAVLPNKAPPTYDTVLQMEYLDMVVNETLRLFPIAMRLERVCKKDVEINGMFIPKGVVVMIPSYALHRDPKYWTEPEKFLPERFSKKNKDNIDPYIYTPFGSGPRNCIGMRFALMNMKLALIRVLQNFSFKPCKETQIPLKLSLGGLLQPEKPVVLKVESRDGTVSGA
Chain of Cytochrome P450 2C19 (P33261 whole entry): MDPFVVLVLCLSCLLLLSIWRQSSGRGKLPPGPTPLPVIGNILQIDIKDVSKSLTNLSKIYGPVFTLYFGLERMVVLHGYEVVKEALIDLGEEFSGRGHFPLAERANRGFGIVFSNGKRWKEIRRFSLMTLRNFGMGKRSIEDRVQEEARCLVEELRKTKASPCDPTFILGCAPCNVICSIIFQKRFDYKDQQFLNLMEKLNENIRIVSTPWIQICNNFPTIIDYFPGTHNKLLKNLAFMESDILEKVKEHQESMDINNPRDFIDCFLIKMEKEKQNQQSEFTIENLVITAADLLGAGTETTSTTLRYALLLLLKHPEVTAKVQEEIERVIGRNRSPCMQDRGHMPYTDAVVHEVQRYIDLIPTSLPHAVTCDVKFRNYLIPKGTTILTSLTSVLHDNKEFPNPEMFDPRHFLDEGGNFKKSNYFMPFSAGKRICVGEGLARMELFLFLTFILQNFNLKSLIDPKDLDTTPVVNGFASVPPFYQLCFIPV
Chain of Beta-galactosidase (Q8VNN2 whole entry): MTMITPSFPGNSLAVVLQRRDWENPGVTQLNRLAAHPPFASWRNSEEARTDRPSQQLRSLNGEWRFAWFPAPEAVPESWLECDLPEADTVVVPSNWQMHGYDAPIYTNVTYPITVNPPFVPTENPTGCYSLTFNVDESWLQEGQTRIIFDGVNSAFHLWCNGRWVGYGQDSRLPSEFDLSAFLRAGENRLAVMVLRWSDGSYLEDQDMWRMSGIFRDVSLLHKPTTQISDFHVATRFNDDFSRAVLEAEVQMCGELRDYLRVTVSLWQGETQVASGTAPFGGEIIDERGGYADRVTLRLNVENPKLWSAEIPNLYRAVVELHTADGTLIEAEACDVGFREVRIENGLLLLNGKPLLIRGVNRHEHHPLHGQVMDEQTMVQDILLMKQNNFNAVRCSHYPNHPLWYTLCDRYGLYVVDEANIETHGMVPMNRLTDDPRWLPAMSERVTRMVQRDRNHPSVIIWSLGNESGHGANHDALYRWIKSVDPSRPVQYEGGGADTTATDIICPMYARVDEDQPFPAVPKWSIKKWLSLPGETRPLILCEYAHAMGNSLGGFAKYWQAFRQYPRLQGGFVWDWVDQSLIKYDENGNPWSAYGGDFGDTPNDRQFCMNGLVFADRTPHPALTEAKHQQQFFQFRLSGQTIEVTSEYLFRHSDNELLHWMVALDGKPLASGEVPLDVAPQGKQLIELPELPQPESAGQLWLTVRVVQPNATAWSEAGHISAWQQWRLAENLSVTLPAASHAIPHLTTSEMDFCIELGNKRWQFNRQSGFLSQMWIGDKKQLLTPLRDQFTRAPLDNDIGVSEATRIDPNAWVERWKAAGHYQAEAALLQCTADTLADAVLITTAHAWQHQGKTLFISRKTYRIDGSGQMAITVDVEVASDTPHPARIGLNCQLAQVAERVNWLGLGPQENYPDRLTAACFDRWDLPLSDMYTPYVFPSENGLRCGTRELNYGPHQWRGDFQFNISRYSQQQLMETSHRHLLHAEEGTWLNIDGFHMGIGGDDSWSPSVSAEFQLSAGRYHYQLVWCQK

With `CC1N(C)c2cccc3cccc(c23)N1C`, the results for the EC50 in series [1] and in series [4] were > 300 µM (inconclusive) and > 300 µM (not active), respectively. Further, the values for the IC50 in series [2] and in [3] were > 80 µM (inactive) and 25 µM (active), respectively.

Take `Cc1cccc(C(=O)Nc2sc3c(c2C#N)CCCCC3)c1`: the AC50 (in general, the midpoint of the concentration-response curve, whichever way the signal moves) in series [5] was 42.1 µM (active).

Take `O=C(OCC(=O)c1ccc([N+](=O)[O-])cc1)/C(=C\c1ccc(Cl)cc1)NC(=O)c1ccccc1`: the AC50 in series [6] was 0.0355 µM (inconclusive); in series [7], 22.4 µM (inconclusive). Besides, in series [2], the IC50 (usually the concentration that inhibits the measured activity by half) was > 80 µM (inactive).

Turning to `COc1ccc(S(=O)(=O)NNc2nc(C)cc(C)n2)cc1Br`, in [8], the IC50 is reported as > 40 µM (not active). Further, the EC50 (in general, the concentration giving half of the maximal effect) in [9] is > 40 µM (inactive).

Take `CC(C)CNC(=O)O`: the AC50 result in series [10] and in series [11] was “inconclusive” each time.

As to `Cc1ccnc(NC(=O)c2ccc(S(=O)(=O)N3CCC(C)CC3)cc2)c1`, in [5], the AC50 is 128 µM (active).

On to `COc1cc(C(=O)NCCOc2cc(C)ccc2C(C)C)cc(OC)c1OC`, for which the half-maximal effective concentration (EC50) in series [12] is 3.03 µM (active). Besides, the IC50 is 5.42 µM (active) in series [13], 5.52 µM (active) in [14] and 12 µM (active) in series [15].

Turning to `COc1ccc2nc(NC(=O)C3CCN(S(=O)(=O)c4cccc5nsnc45)CC3)sc2c1`, the AC50 in series [16] is > 70 µM (inactive); in [17] it was 41.8 µM (active); in series [11], “inconclusive”; in series [18], 4 µM (active); in [19] it was 1.9 µM (active); in series [20] it was 65.4 µM (active). In addition, the AC50 in [21] was 3.16 µM (inconclusive).

Regarding `CC(C)Nc1oc(-c2cccc3ccccc23)nc1C#N`, the AC50 in series [5] is 76.7 µM (active).

With `Cc1ccn(-c2cccc(-n3ccc(C)n3)n2)n1`, in series [22], the EC50 was > 67.6 µM (inactive). In [5], the AC50 was 46.9 µM (active).

In the case of `COc1ccc(C(=O)CN(C(=O)c2ccc(Cl)cc2)N2C(=O)c3ccccc3C2=O)cc1`, the figures for the AC50 in series [6] and in series [11] were 10 µM (inconclusive) and “inconclusive”, respectively.
